Reference: paper PMC10449848, “Structural basis of lipid-droplet localization of 17-beta-hydroxysteroid dehydrogenase 13” (Nature Communications, 2023)
Several values for one entry are separate records, joined by “and”; a condition that tells them apart may be missing. Equal values may be shown once.

Experiments:
dog WT HSD17B13 = molecular target: T1, dog WT HSD17B13 (Canis lupus familiaris, UniProt A0A8C0PP93); test: Thermal shift assay (static light scattering, Tagg), dog WT HSD17B13; format: binding; conditions: Fig. 6d; 500 μM NAD+
T1 construct: HSD17B13 (AA1-300, XP_038300006.1); made in house; host or cells: Sf9 (baculovirus)
T1 sequence (A0A8C0PP93 1-300): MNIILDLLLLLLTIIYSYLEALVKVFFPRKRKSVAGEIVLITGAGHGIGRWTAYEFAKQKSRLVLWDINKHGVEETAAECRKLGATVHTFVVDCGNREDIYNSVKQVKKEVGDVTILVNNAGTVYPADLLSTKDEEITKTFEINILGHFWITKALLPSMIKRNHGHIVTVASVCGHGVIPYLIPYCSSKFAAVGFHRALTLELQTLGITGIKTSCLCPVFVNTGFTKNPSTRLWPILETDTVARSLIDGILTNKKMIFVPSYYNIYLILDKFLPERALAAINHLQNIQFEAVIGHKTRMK
Description: To understand ligand binding, we tested several approaches such as surface plasmon resonance and isothermal calorimetry. […] We next turned to thermal shift assays (TSA) for comparing ligand binding affinities. TSA measures the changes in the thermal denaturation temperature of a protein under different conditions such as the presence compound, changes in buffer conditions, or sequence mutations. There are various readouts including intrinsic fluorescence or light scattering signals. We chose the static light scattering methods to detect the temperatures at which our proteins start to aggregate (Tagg), which are more suitable for membrane proteins that require detergent micelles for stability.
TSA studies were run on the UNit instrument (Unchained Labs, CA, USA). […] The data was processed using the UNcle software (Unchained Labs, CA, USA), and temperatures at which the protein started aggregation were recorded as Tagg.

human HSD17B11 = molecular target: T2, human HSD17B11 (Homo sapiens, UniProt Q8NBQ5); test: Thermal shift assay (static light scattering, Tagg), human HSD17B11; format: binding; conditions: Fig. 6d, 500 μM NAD+
T2 construct: human HSD17B11 (residues 2-300, NP_057329.3); 10x His (N); TEV protease site (N); made in house; host or cells: Sf9 (baculovirus)
T2 sequence (Q8NBQ5 2-300): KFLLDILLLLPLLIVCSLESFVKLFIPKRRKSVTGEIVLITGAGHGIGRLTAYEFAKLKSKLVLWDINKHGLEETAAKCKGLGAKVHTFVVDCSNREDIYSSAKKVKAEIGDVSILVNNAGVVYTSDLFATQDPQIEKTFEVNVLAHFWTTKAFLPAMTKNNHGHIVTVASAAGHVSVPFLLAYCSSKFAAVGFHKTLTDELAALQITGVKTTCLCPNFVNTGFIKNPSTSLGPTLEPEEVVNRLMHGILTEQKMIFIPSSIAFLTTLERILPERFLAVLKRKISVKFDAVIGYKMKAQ
Description: Because of the low enzymatic activities of dog wild-type HSD17B13 (Fig. 6a) and HSD17B11 with β-estradiol, it was difficult to measure compound inhibition of these proteins in a biochemical assay and we instead utilized direct binding methods to compare compounds interaction with different proteins. To understand ligand binding, we tested several approaches such as surface plasmon resonance and isothermal calorimetry. Like many membrane/detergent-associated proteins, however, these methods were not amenable for HSD17B13. We next turned to thermal shift assays (TSA) for comparing ligand binding affinities. TSA measures the changes in the thermal denaturation temperature of a protein under different conditions such as the presence compound, changes in buffer conditions, or sequence mutations. There are various readouts including intrinsic fluorescence or light scattering signals. We chose the static light scattering methods to detect the temperatures at which our proteins start to aggregate (Tagg), which are more suitable for membrane proteins that require detergent micelles for stability. Given that in theory[51] and in practice Tagg continues to increase with concentration of ligands far above their IC50s, we used high cofactor and inhibitor concentrations in the TSA experiments to maximize the ligand binding signal.
TSA studies were run on the UNit instrument (Unchained Labs, CA, USA). Experiments were run in either 25 mM sodium phosphate pH 7, 150 mM NaCl, 10% glycerol, 1 mM TCEP, 0.05% DDM, + different cofactors (NAD^+, NADH, NADP, NADPH; MilliporeSigma) or 25 mM HEPES pH 7.2, 300 mM NaCl, 0.5 mM TCEP, 0.05% DDM, 10% glycerol, ±500 µM NAD^+, and ±100 µM compound 1 (from 2 mM DMSO stock) or DMSO or 50 mM Hepes pH 7.5, 300 mM NaCl, 0.5 mM TCEP, 0.05% DDM, 500 µM NAD^+, ± 50 µM compounds (from 2 mM stock) or DMSO. Protein aggregation was measured by static light scattering at 266 and 473 nm with a 1 °C/sec ramp rate from 20-80 °C. The data was processed using the UNcle software (Unchained Labs, CA, USA), and temperatures at which the protein started aggregation were recorded as Tagg. Reported Tagg and analysis were based on measurements at 266 nm unless otherwise indicated. The protein concentration used was 10.4 μM.

Question: O=C(NC[C@]1(O)CC[C@H](COc2ccccc2F)CC1)c1ccc(O)c(F)c1 [Compound 1] was tested. Which “stabilization in TSA” value (dog WT HSD17B13) did it give?
Answer: The value was “Neither 1 nor 2 stabilized dog WT HSD17B13 significantly”.

Question: And the “effect on protein stability in TSA” value (human HSD17B11)?
Answer: Its value is “neither 1 nor 2 showed an effect on protein stability”.

Question: And the Tagg (human HSD17B11; 50 µM compound)?
Answer: Its Tagg is 37.65 °C and 35.79 °C and 38.54 °C and 39 °C and 39.99 °C and 38.79 °C and 39.64 °C and 38.95 °C.
